Assays:
Format in all cases: cell-based
MOLT-4 = test: NCI60 five-dose screen; conditions: Homo sapiens; MOLT-4, Leukemia
Experimental: (§1) Since all new conjugates (3a–h) had notable antiproliferative activities on several tumor cell lines in the course of the one-dose screening, they were subjected to a five-dose test. […] J. Mol. Sci. 2025, 26, 11063 10 of 10 S.3. NCI60 Screening A detailed description of the NCI screening procedures can also be found on the website of NCI [39], and in our previous work. S.3.1. One-Dose Screen All candidates were examined at first at a single high dose (10 μM) in the full NCI60 cell panel. The value reported for the one-dose test is growth relative to the no-drug control and relative to the time zero number of cells. This made possible the disclosure of both growth inhibition (numbers between 0 and 100) and lethality (numbers less than 0). For example, a value of 100 means no growth inhibition. A value of 20 would mean 80% growth inhibition. A value of 0 means no net growth over the course of the analysis. A value of −20 would mean 20% lethality. A value of −100 means all cells are dead. S.3.2. […] The human tumor cell lines of the cancer screening panel were grown in RPMI 1640 medium containing 5% fetal bovine serum and 2 mM l-glutamine. Characteristically, cells were injected in 96-well microtiter plates in 0.1 mL at plating densities ranging from 5000 to 40,000 cells/well, depending on the doubling time of individual cell lines. After cell inoculation, the microtiter plates were incubated at 37 °C, 5% carbon dioxide, 95% air, and 100% relative humidity for 24 hours before the addition of tested compounds. After 24 hours, 2 plates of each cell line were fixed in situ with Cl3COOH (TCA), to represent a measurement of the cell population for each cell line at the time of drug addition (tz). Tested compounds were solubilized in DMSO at 400-fold the desired final maximum test concentration and stored frozen before application. In the course of the drug addition, an aliquot of frozen concentrate was thawed and diluted to twice the desired final maximum test concentration with a complete medium containing 50 μg mL−1 gentamicin. Additional four, 10-fold or ½ log serial dilutions were produced to furnish a total of five drug concentrations plus control. Aliquots of 0.1 mL of these different drug dilutions were added to the appropriate microtiter wells already containing 0.1 mL of medium, resulting in the required final drug concentrations. Following drug addition, the plates were incubated at 37 °C, 5% carbon dioxide, 95% air, and 100% relative humidity for an additional 48 hours. For adherent cells, the test was finished by the addition of cold Cl3COOH. Cells were fixed in situ by the addition of 50 μL of cold 50% (w/v) Cl3COOH, and incubated at 4 °C for 1 hour. The supernatant was discarded, and the plates were washed with H2O (5×) and dried in air. Sulforhodamine B (SRB) solution (0.1 mL) at 0.4% (w/v) in 1% CH3COOH was added to each well, and plates were incubated at RT for 10 min. After staining, the unbound dye was removed by washing five times with 1% CH3COOH, and the plates were dried in the air. The bound stain is afterward solubilized with a 10 mM trizma base, and the absorbance is read on an automated plate reader at λ = 515 nm. Utilizing the seven absorbance measurements [time zero (tz), control growth (c), and test growth in the presence of the drug at the five concentration levels (ti)], the percentage growth was determined at each of the drug concentration levels. Growth inhibition (%) was calculated as: [(ti − tz)/(c − tz)] × 100, for concentrations where ti ≥ tz (1) [(ti − tz)/(tz)] × 100, for concentrations where ti < tz. (2) Three dose‒response parameters were calculated as follows. GI50 (growth inhibition of 50%) was determined from Equation (3), which is the drug concentration resulting in a 50% reduction in the net protein increase (as measured by SRB staining) in control cells in the course of the drug incubation. [(ti − tz)/(c − tz)] × 100 = 50 (3)

UO-31 = test: NCI60 five-dose screen; conditions: Homo sapiens; UO-31, Renal Cancer
Experimental: as §1

HCT-15 = test: NCI60 five-dose screen; conditions: Homo sapiens; HCT-15, Colon Cancer
Experimental: as §1

MDA-MB-468 = test: NCI60 five-dose screen; conditions: Homo sapiens; MDA-MB-468, Breast Cancer
Experimental: as §1

SN12C = test: NCI60 five-dose screen; conditions: Homo sapiens, Renal Cancer
Experimental: as §1

DU-145 = test: NCI60 five-dose screen; conditions: Homo sapiens; DU-145, Prostate Cancer
Experimental: as §1

HL-60(TB) = test: NCI60 five-dose screen; conditions: Homo sapiens, Leukemia
Experimental: as §1

HT29 = test: NCI60 five-dose screen; conditions: Homo sapiens, HT-29; HT29, Colon Cancer
Experimental: as §1

EKVX = test: NCI60 five-dose screen; conditions: Homo sapiens, Non-small-Cell Lung Cancer
Experimental: as §1

HOP-92 = test: NCI60 five-dose screen; conditions: Homo sapiens; HOP-92, Non-small-Cell Lung Cancer
Experimental: as §1

MDA-MB-435 = test: NCI60 five-dose screen; conditions: Homo sapiens; MDA-MB-435, Melanoma
Experimental: as §1

T-47D = test: NCI60 five-dose screen; conditions: Homo sapiens, T47D, Breast Cancer
Experimental: as §1

NCI-H460 = test: NCI60 five-dose screen; conditions: Homo sapiens; NCI-H460, Non-small-Cell Lung Cancer
Experimental: as §1

Breast Cancer panel = test: NCI60 five-dose screen, panel mean; conditions: Homo sapiens; mean over Breast Cancer panel
Experimental: as §1

Prostate Cancer panel = test: NCI60 five-dose screen, panel mean; conditions: Homo sapiens; mean over Prostate Cancer panel
Experimental: as §1

CNS Cancer panel = test: NCI60 five-dose screen, panel mean; conditions: Homo sapiens; mean over CNS Cancer panel
Experimental: as §1

Renal Cancer panel = test: NCI60 five-dose screen, panel mean; conditions: Homo sapiens; mean over Renal Cancer panel
Experimental: as §1

Ovarian Cancer panel = test: NCI60 five-dose screen, panel mean; conditions: Homo sapiens; mean over Ovarian Cancer panel
Experimental: as §1

Leukemia panel = test: NCI60 five-dose screen, panel mean; conditions: Homo sapiens; mean over Leukemia panel
Experimental: as §1

Colon Cancer panel = test: NCI60 five-dose screen, panel mean; conditions: Homo sapiens; mean over Colon Cancer panel
Experimental: as §1

[1] = tested on: Non-small-Cell Lung Cancer panel; test: NCI60 five-dose screen, panel mean; conditions: Homo sapiens; mean over Non-small-Cell Lung Cancer panel
Experimental: as §1

Melanoma panel = test: NCI60 five-dose screen, panel mean; conditions: Homo sapiens; mean over Melanoma panel
Experimental: as §1

Row | Structure (SMILES) | GI50 (MOLT-4) [nM] | GI50 (UO-31) [nM] | GI50 (HCT-15) [nM] | GI50 (MDA-MB-468) [nM] | GI50 (SN12C) [nM] | GI50 (DU-145) [nM] | GI50 (HL-60(TB)) [nM] | GI50 (HT29) [nM] | GI50 (HOP-92) [nM] | GI50 (MDA-MB-435) [nM] | GI50 (T-47D) [nM] | GI50 (NCI-H460) [nM] | GI50 (Breast Cancer panel) [nM] | GI50 (Prostate Cancer panel) [nM] | GI50 (CNS Cancer panel) [nM] | GI50 (Renal Cancer panel) [nM] | GI50 (Ovarian Cancer panel) [nM] | GI50 (Leukemia panel) [nM] | GI50 (Colon Cancer panel) [nM] | GI50 [1] [nM] | further results
1 | O=c1cc(-c2ccccc2)oc2cc(OCCCC[P+](c3ccccc3)(c3ccccc3)c3ccccc3)cc(O)c12 [3a] | 338 | 1240 | 628 | 128 | 330 | 507 | 167 | 1280 | 234 | 299 | 228 | 321 | 240 | 410 | 300 | 530 | 890 | 260 | 620 | 460 | GI50 (EKVX): 317 nM; GI50 (Melanoma panel): 300 nM
2 | Cc1ccc([P+](CCCCOc2cc(O)c3c(=O)cc(-c4ccccc4)oc3c2)(c2ccc(C)cc2)c2ccc(C)cc2)cc1 [3b] | 322 | 177 | 311 | 123 | 389 | 223 | 140 | 855 | 163 | 238 | 105 | 357 | 250 | 200 | 300 | 310 | 480 | 220 | 390 | 310 | GI50 (EKVX): 275 nM; GI50 (Melanoma panel): 320 nM
3 | COc1ccc([P+](CCCCOc2cc(O)c3c(=O)cc(-c4ccccc4)oc3c2)(c2ccc(OC)cc2)c2ccc(OC)cc2)cc1 [3c] | 453 | 1480 | 1550 | 248 | 317 | 410 | 288 | 1250 | 252 | 319 | 302 | 371 | 330 | 370 | 460 | 1030 | 760 | 340 | 640 | 590 | GI50 (EKVX): 462 nM; GI50 (Melanoma panel): 350 nM
4 | O=c1cc(-c2ccccc2)oc2cc(OCCCC[P+](c3ccc(F)cc3)(c3ccc(F)cc3)c3ccc(F)cc3)cc(O)c12 [3d] | 1900 | 1850 | 1850 | 1100 | 2490 | 1720 | 1340 | 1840 | 1320 | 1550 | 1450 | 2130 | 1610 | 1740 | 1670 | 2100 | 3900 | 1710 | 1690 | 1970 | GI50 (EKVX): 2230 nM; GI50 (Melanoma panel): 1740 nM
5 | O=c1cc(-c2ccccc2)oc2cc(OCCCC[P+](C3CCCCC3)(C3CCCCC3)C3CCCCC3)cc(O)c12 [3e] | 1010 | 1610 | 1550 | 273 | 509 | 1240 | 184 | 1770 | 211 | 341 | 397 | 957 | 590 | 870 | 750 | 1300 | 1950 | 420 | 940 | 1070 | GI50 (EKVX): 1060 nM; GI50 (Melanoma panel): 550 nM
6 | COc1c(C)cc([P+](CCCCOc2cc(O)c3c(=O)cc(-c4ccccc4)oc3c2)(c2cc(C)c(OC)c(C)c2)c2cc(C)c(OC)c(C)c2)cc1C [3f] | 238 | 277 | 345 | 64 | 313 | 339 | 78 | 646 | 165 | 296 | 121 | 304 | 220 | 310 | 280 | 320 | 510 | 120 | 410 | 290 | GI50 (EKVX): 309 nM; GI50 (Melanoma panel): 310 nM
7 | Cc1ccccc1[P+](CCCCOc1cc(O)c2c(=O)cc(-c3ccccc3)oc2c1)(c1ccccc1C)c1ccccc1C [3g] | 235 | 1770 | 1410 | 148 | 230 | 376 | 180 | 1220 | 255 | 320 | 208 | 243 | 250 | 340 | 330 | 580 | 820 | 210 | 580 | 450 | GI50 (Melanoma panel): 270 nM
8 | O=c1cc(-c2ccccc2)oc2cc(OCCCC[P+](c3ccccc3)(c3ccccc3)c3ccccn3)cc(O)c12 [3h] | 424 | 1540 | 1580 | 176 | 510 | 1220 | 130 | 1750 | 346 | 376 | 259 | 801 | 530 | 900 | 770 | 1350 | 1890 | 260 | 1070 | 1070 | GI50 (EKVX): 1120 nM; GI50 (Melanoma panel): 520 nM

From PMC12652692, “Synthesis and In Vitro Anticancer Evaluation of Novel Phosphonium Derivatives of Chrysin” (International Journal of Molecular Sciences, 2025)
